Reference: paper PMC2695949, “Synthesis and Evaluation of Novel Organogermanium Sesquioxides As Antitumor Agents” (Bioinorganic Chemistry and Applications, 2009)

Tests used:
[1] = tested on: KB (human nasopharyngeal cancer) cells; experiment: MTT antitumor activity in vitro, KB cells; type: cell-based; details: 50 μg/mL, DMSO as solvent
Protocol: (§1) The antitumor activity in vitro was assayed by the MTT method using DMSO as solvent. The tumor inhibition yield and IC50 of the five organogermanium sesquioxides and Ge-132 against KB (human nasopharyngeal cancer), HCT (human colonic cancer), and Bel (human liver cancer) cells were measured.

[2] = tested on: HCT (human colonic cancer) cells; experiment: MTT antitumor activity in vitro, HCT cells; type: cell-based; details: 50 μg/mL, DMSO as solvent
Protocol: as §1

[3] = tested on: Bel (human liver cancer) cells; experiment: MTT antitumor activity in vitro, Bel cells; type: cell-based; details: 50 μg/mL, DMSO as solvent
Protocol: (§2) The antitumor activity in vitro was assayed by the MTT method using DMSO as solvent.

[4] = tested on: KB, HCT, and Bel cells; experiment: MTT antitumor activity in vitro, cell line not singled out; type: cell-based, human; details: bioassay at 1, 10, and 50 μg/mL
Protocol: as §2

[5] = Biodistribution in nude mice bearing human colonic cancer xenografts; type: in vivo, Balb/c nude mice; details: for Biodistribution, uptake: Tumor; for Biodistribution, uptake / T/NT (ratio of ID %/g of tumor over normal tissue): n = 3; for T/NT (ratio of ID %/g of tumor over normal tissue): 20 h
Protocol: Experimental animals (Balb/c nude mice) were provided by Experimental Animal Department of Chinese Academy of Medical Sciences. The nude mice were implanted with human colonic carcinoma cells (LoVo cells). When the tumor size was about 1 cm, the mice were used for the experiment.
Twelve nude mice bearing human colonic cancer xenografts were injected in tail vein with 555~740 kBq of ^99mTc labeled compound 5. Three animals were sacrified at 1-hour, 3-hour, 6-hour, and 20-hour postinjection, respectively. Tissues and organs were excised, rinsed, weighted, and counted in a γ counter. The uptake percentage of the injected dose per gram of the measured organ (ID %/g) and the ratio of ID %/g of tumor over normal tissues (T/NT) were calculated.

[6] = Solubility of the powders; type: physicochemical; details: 2 mol/L of NaOH solution

Question: With O=C(O)C[CH2][Ge](=[O])[O][Ge](=[O])[CH2]CC(=O)O [Ge-132, carboxyethylgermanium sesquioxide, reference compound] as the molecule, how does the Inhibition yield [1] read?
Answer: 0%

Question: And the Inhibition yield [2]?
Answer: 31.4%

Question: What about the Inhibition yield [3] of the same molecule?
Answer: 0%

Question: What does the source list for NC(=S)NCC[CH2][Ge](=[O])[O][Ge](=[O])[CH2]CCNC(N)=S [Compound 5, γ-thiocarbamido propyl germanium sesquioxide]?
Answer: Inhibition yield [1]: 92.9%; Inhibition yield [2]: 84.9%; Inhibition yield [3]: 70.9%; antitumor activity against cancer cells (in words) [4]: certain activities; Biodistribution, uptake ([5]; 1 h postinjection): 0.73 % ID/g; Biodistribution, uptake ([5]; 3 h postinjection): 0.97 % ID/g; Biodistribution, uptake ([5]; 6 h postinjection): 0.87 % ID/g; Biodistribution, uptake ([5]; 20 h postinjection): 0.62 % ID/g; clearance in tumor ([5]; nude mice, tail vein injection): relatively low; T/NT (ratio of ID %/g of tumor over normal tissue) ([5]; tumor versus Blood): 3.01; T/NT (ratio of ID %/g of tumor over normal tissue) ([5]; tumor versus Brain): 18.30; T/NT (ratio of ID %/g of tumor over normal tissue) ([5]; tumor versus Muscle): 5.81; solubility [6]: easily soluble

Question: For O=C1NC(=O)C2C3OC(C[CH]3[Ge](=[O])[O][Ge](=[O])[CH]3CC4OC3C3C(=O)NC(=O)C43)C12 (centres unmarked) [Compound 2], which Inhibition yield [1] is on record?
Answer: 0%

Question: What about the Inhibition yield [2] of the same molecule?
Answer: 0%

Question: And the Inhibition yield [3]?
Answer: 0%

Question: And the “antitumor activity against cancer cells (in words)” value (“antitumor activity” for short) [4]?
Answer: no antitumor activity

Question: Which results are given for O=C1OC(=O)C2C3OC(C[CH]3[Ge](=[O])[O][Ge](=[O])[CH]3CC4OC3C3C(=O)OC(=O)C43)C12 (centres unmarked) [Compound 1]?
Answer: Inhibition yield [1]: 0%; Inhibition yield [2]: 0%; Inhibition yield [3]: 0%; antitumor activity against cancer cells (in words) [4]: no antitumor activity

Question: For NN1C(=O)C2C3C[CH]([Ge](=[O])[O][Ge](=[O])[CH]4CC5OC4C4C(=O)N(N)C(=O)C54)C(O3)C2C1=O (centres unmarked) [Compound 3], which Inhibition yield [1] is on record?
Answer: 0%

Question: And the Inhibition yield [2]?
Answer: 0%

Question: What about the Inhibition yield [3] of the same molecule?
Answer: 0%

Question: What about the “antitumor activity” value [4] of the same molecule?
Answer: no antitumor activity

Question: And the solubility [6]?
Answer: easily soluble

Question: With CCOC(=O)CCC(NC(=O)C[CH2][Ge](=[O])[O][Ge](=[O])[CH2]CC(=O)NC(CCC(=O)OCC)C(=O)OCC)C(=O)OCC (centres unmarked) [Compound 4, Germanium Sesquioxide of Ethyl Glutamate] as the molecule, how does the Inhibition yield [1] read?
Answer: 0%

Question: What about the Inhibition yield [2] of the same molecule?
Answer: 41.5%

Question: What about the “antitumor activity” value [4] of the same molecule?
Answer: certain activities
